The values that follow come from patent publication US8883170B2 (priority 2008, dated 2014).

Read-outs that look alike come from different tables or passages of the source.

One data set relates to humans. Particulars: in humans; cited from earlier work.
Data set [1] relates to recombinant hemagglutinin antigen (rHA) of influenza A. In kind it is in vivo. Particulars: compound 100 μg + rHA 5 μg; for Anti-rHA Titer IgG1 / Anti-rHA Titer IgG2a / Anti-rHA Titer IgG2b: s.c. Days 1 and 22, serum Day 43; for Anti-rHA Titer Total IgG: s.c. Days 1 and 22, serum Day 43, BALB/c mice.
In the next data set the test system is spleen cells. Briefly: Immunogenicity study with rHA: lymphoproliferation of restimulated spleen cells (3H-TdR incorporation). Particulars: mice immunized with compound 100 μg + rHA 5 μg; for Lymphoproliferation Con A: restimulated with concanavalin A 4 days; for Lymphoproliferation Medium: restimulated with medium (background) 4 days; for Lymphoproliferation rHA: restimulated with rHA 4 days. In kind it is in vivo, BALB/c mice.

In the next data set the test system is BALB/c mice. Particulars: for overall toxicity conclusion: acute toxicity study in mice; for 7-Day Survival Males: male mice; for observations in treated animals: mice.
The mark [2] stands for this setting: single s.c. dose 250 μg, female mice.
The mark [3] stands for this setting: single s.c. dose 500 μg, female mice.
[4] abbreviates: single s.c. dose 1 mg, female mice.
Where [5] appears, read: single s.c. dose 2 mg, female mice.
[6] abbreviates: single s.c. dose 4 mg in DMSO, female mice.

Consider QS-21, for which, in the data set with humans, the “dose associated with significant local reactions” value is at least 200 µg.

In the case of `CCCCCCCCCCCCNC(=O)C12CCC(C)(C)CC1C1=CCC3C4(C)CCC(O)C(C)(C=O)C4CCC3(C)C1(C)CC2` (stereo not shown) [Dodecyl genin, dodecylamide derivative of gypsogenin], the “Anti-rHA Titer IgG1” value in data set [1] is 20,984. For the same compound, the “Anti-rHA Titer IgG2a” value in data set [1] worked out at 6600. Further, the “Anti-rHA Titer IgG2b” value in data set [1] worked out at 1466. Besides, in data set [1], the “Anti-rHA Titer Total IgG” value is 3418. For the same compound, the “Lymphoproliferation Con A” value in the data set on spleen cells was 278,393. Besides, the “Lymphoproliferation Medium” value with spleen cells came to 772. Besides, the “Lymphoproliferation rHA” value with spleen cells was 30,402. In addition, the overall toxicity conclusion result in the data set with BALB/c mice is “general lack of toxicity”. In addition, the “7-Day Survival Females” value in the data set on BALB/c mice (setting [2]), with BALB/c mice (setting [3]), with BALB/c mice (setting [4]), in the data set with BALB/c mice (setting [5]) and with BALB/c mice (setting [6]) was 100% each time. Besides, the “7-Day Survival Males” value in the data set with BALB/c mice (single s.c. dose 250 μg), in the data set on BALB/c mice (single s.c. dose 500 μg), in the data set with BALB/c mice (single s.c. dose 1 mg), in the data set on BALB/c mice (single s.c. dose 2 mg) and with BALB/c mice (single s.c. dose 4 mg in DMSO) was 100% in each case. For the same compound, the “observations in treated animals” value with BALB/c mice (single s.c. injection) is “lethargy, hair loss, and skin irritation at the injection site”.

For `CCCCCCCCCCCCNC(=O)[C@]12CCC(C)(C)C[C@H]1C1=CCC3[C@@]4(C)CC[C@H](OC5OC(CO)C(O)C(O)C5O)[C@@](C)(C=O)C4CC[C@@]3(C)[C@]1(C)CC2` (stereo partly shown) [Saponin 1], in data set [1], the “Anti-rHA Titer IgG1” value is reported as 29,100. The “Anti-rHA Titer IgG2a” value in data set [1] is on record as 446. Moreover, the “Anti-rHA Titer IgG2b” value in data set [1] was 2008. Moreover, the “Anti-rHA Titer Total IgG” value in data set [1] is 5130. The “Lymphoproliferation Con A” value with spleen cells is 232,769. Moreover, in the data set with spleen cells, the “Lymphoproliferation Medium” value was found to be 268. In addition, in the data set with spleen cells, the “Lymphoproliferation rHA” value is 3696. Moreover, in the data set on BALB/c mice, the overall toxicity conclusion result is “general lack of toxicity”. In addition, the “7-Day Survival Females” value with BALB/c mice (setting [2]) is listed as 100%; in the data set on BALB/c mice (setting [3]) it was 100%; with BALB/c mice (setting [4]), 100%; in the data set on BALB/c mice (setting [5]) it was 80%; in the data set with BALB/c mice (setting [6]), 80%. The “7-Day Survival Males” value in the data set with BALB/c mice (single s.c. dose 250 μg), in the data set on BALB/c mice (single s.c. dose 500 μg), in the data set with BALB/c mice (single s.c. dose 1 mg), with BALB/c mice (single s.c. dose 2 mg) and in the data set on BALB/c mice (single s.c. dose 4 mg in DMSO) was 100% each time. For the same compound, the “maximum tolerated dose (MTD) for females” value in the data set on BALB/c mice (single s.c. injection, female mice) is 1 mg. The “observations in treated animals” value with BALB/c mice (single s.c. injection) is “lethargy, hair loss, and skin irritation at the injection site”.

For the compound `CC1(C)CC[C@]2(C(=O)O)CC[C@]3(C)C(=CC[C@@H]4[C@@]5(C)CC[C@H](O)[C@@](C)(C=O)[C@@H]5CC[C@]43C)[C@@H]2C1` [Gypsogenin, gypsogenin, reference compound], the “Anti-rHA Titer IgG1” value in data set [1] worked out at 3220. Further, the “Anti-rHA Titer IgG2a” value in data set [1] was determined as 348. For the same compound, the “Anti-rHA Titer IgG2b” value in data set [1] amounted to 1118. The “Anti-rHA Titer Total IgG” value in data set [1] was found to be 1136. The “Lymphoproliferation Con A” value in the data set on spleen cells is 321,750. Also, the “Lymphoproliferation Medium” value in the data set on spleen cells came to 356. In the data set on spleen cells, the “Lymphoproliferation rHA” value stood at 8507. For the same compound, the overall toxicity conclusion result with BALB/c mice is given as “general lack of toxicity”. The “7-Day Survival Females” value in the data set with BALB/c mice (setting [2]), with BALB/c mice (setting [3]), in the data set on BALB/c mice (setting [4]), with BALB/c mice (setting [5]) and in the data set on BALB/c mice (setting [6]) was 100% throughout. Further, the “7-Day Survival Males” value with BALB/c mice (single s.c. dose 250 μg), in the data set with BALB/c mice (single s.c. dose 500 μg), in the data set on BALB/c mice (single s.c. dose 1 mg), with BALB/c mice (single s.c. dose 2 mg) and in the data set on BALB/c mice (single s.c. dose 4 mg in DMSO) was 100% each time. Besides, the “observations in treated animals” value with BALB/c mice (single s.c. injection) was “lethargy, hair loss, and skin irritation at the injection site”. For the same compound, the “stability on storage (TLC, purity checked periodically)” value (kept in cold (below −4° C.), 1 year) is given as “no change was observed”. Besides, the “stability on storage (TLC)” value (room temperature storage) is “decomposition was seen”.
